# Results taken from PMC9305623, “Next generation GLP-1/GIP/glucagon triple agonists normalize body weight in obese mice” (Molecular Metabolism, 2022).
# *1 amine or outer side, *2 acyl side, *3 side chain or, on linkers, in order; H or OH if unused. Where a SMILES comes first, the peptide text is derived from it. Side-chain parts run from the residue outwards. [ ]: non-standard residue; d: D form. The star is where a group is joined. C20 diacid = O=C(O)CCCCCCCCCCCCCCCCCCC(=O)*; γGlu = O=C(O)[C@H](CCC(=O)[*:2])N[*:1]; εLys = N[C@@H](CCCCN[*:1])C(=O)[*:2]; AEEA = NCCOCCOCC(=O)O; Aib = CC(C)(N)C(=O)O
# How the values were obtained:
# Test in all cases: Receptor activation: cAMP production by CRE-luciferase reporter in stably transfected BHK cells
# Type in all cases: cell-based
# [1] = target: T1, hGcg Receptor (Homo sapiens, UniProt P47871); settings: for hGcg Receptor Relative Potency %: compared to the native ligand for the receptor
# T1 construct: expressed in transfected cells; host or cells: baby hamster kidney (BHK) cells, stably transfected, with CRE-firefly luciferase reporter
# T1 sequence (P47871 26-477): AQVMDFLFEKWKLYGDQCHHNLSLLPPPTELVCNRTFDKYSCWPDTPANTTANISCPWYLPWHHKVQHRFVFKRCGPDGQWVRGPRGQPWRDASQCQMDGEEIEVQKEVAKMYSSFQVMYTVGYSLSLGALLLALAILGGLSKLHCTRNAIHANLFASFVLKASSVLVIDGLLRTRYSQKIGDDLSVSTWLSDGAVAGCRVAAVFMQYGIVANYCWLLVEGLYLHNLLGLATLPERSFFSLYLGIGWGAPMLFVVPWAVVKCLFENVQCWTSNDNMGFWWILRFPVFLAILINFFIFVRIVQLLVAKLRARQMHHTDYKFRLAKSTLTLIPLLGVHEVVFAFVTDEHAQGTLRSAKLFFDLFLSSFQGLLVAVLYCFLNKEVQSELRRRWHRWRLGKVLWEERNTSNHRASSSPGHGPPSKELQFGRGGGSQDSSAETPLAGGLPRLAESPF
# Experimental: (§1) Cyclic AMP (cAMP) production was assessed as a proxy for receptor activation using stably transfected baby hamster kidney (BHK) cell lines expressing the DNA for one individual receptor (GLP-1R, GIPR, GcgR; human- or mouse-specific sequence) and the DNA for the firefly luciferase reporter gene linked to the cAMP response element (CRE). The cells were kept in continuous culture at 37 °C and 5% CO2 in Dulbecco's Modified Eagle Medium (DMEM) supplemented with 10% heat-inactivated fetal bovine serum (HI-FBS), 300 μg/mL hygromycin, and 500 μg/mL G418; for cell lines expressing GIPR, the G418 concentration was lowered to 400 μg/mL. Cells were plated in a 96-well poly-D-lysine-coated plate at 5,000 cells per well in growth media and incubated overnight at 37 °C with 5% CO2. After the overnight incubation, the media was removed, the plate was washed once in Dulbecco's phosphase-buffered saline (DPBS), and 50 μL of assay buffer (DMEM without phenol red, 10 mM HEPES, 1x Glutamax, 1% ovalbumin, 0.1% Pluronic F-68) was added to each well. […] Aliquots of the dilution curves were added to the cell plate in a volume of 50 μL per well resulting in final assay concentrations ranging from 1 × 10^−14 to 1 × 10^−7 M. The assay plate was incubated for 3 h at 37 °C and 5% CO2. After the incubation, the assay plate was washed once with DPBS. A 100 μL aliquot of DPBS was added to each well followed by 100 μL of steadylite plus reagent (PerkinElmer). The assay plate was covered to protect reagent from light, shaken at 250 rpm at room temperature for 30 min, and read in a microtiter plate reader. EC50 values were calculated using Prism software (GraphPad) with the nonlinear regression log(agonist) vs. response. A minimum of two replicates were measured for each sample.
# [2] = target: T2, hGIP Receptor (Homo sapiens, UniProt P48546); settings: for hGIP Receptor Relative Potency %: compared to the native ligand for the receptor
# T2 construct: expressed in transfected cells; host or cells: baby hamster kidney (BHK) cells, stably transfected, with CRE-firefly luciferase reporter
# T2 sequence (P48546 22-466): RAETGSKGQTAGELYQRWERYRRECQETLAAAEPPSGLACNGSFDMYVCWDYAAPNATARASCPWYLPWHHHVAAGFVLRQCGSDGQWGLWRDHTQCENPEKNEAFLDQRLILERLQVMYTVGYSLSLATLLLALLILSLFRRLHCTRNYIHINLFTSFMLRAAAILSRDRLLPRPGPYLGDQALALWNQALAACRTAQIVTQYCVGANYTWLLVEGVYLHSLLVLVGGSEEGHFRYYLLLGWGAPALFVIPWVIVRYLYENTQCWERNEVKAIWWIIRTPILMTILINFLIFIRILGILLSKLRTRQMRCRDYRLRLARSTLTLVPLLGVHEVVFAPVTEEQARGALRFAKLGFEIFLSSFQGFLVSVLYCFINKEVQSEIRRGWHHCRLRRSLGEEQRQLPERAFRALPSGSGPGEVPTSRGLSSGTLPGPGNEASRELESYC
# Experimental: as §1
# [3] = target: T3, hGLP-1 Receptor (Homo sapiens, UniProt P43220); settings: for hGLP-1 Receptor Relative Potency %: compared to the native ligand for the receptor
# T3 construct: expressed in transfected cells; host or cells: baby hamster kidney (BHK) cells, stably transfected, with CRE-firefly luciferase reporter
# T3 sequence (P43220 24-463): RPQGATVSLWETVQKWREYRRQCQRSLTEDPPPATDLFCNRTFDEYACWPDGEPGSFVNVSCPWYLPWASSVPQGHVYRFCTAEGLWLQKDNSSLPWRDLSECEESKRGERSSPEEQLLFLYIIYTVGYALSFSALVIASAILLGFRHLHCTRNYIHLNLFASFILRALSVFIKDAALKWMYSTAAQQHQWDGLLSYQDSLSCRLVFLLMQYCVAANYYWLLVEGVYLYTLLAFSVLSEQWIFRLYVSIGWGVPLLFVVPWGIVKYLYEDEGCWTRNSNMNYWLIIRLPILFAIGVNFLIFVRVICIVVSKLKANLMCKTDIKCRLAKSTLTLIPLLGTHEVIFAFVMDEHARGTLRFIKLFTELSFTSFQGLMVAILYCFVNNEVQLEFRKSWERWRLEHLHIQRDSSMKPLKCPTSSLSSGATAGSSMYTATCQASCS
# Experimental: as §1
SMILES,hGcg Receptor Relative Potency % [1] [%],hGIP Receptor Relative Potency % [2] [%],hGLP-1 Receptor Relative Potency % [3] [%],"EC50 ([1]; BHK cells expressing human GcgR and CRE-luciferase, 12-point curve, 3 h, 37 °C, assay buffer with 1% ovalbumin, minimum of two replicates) [nM]","EC50 ([2]; BHK cells expressing human GIPR and CRE-luciferase, 12-point curve, 3 h, 37 °C, assay buffer with 1% ovalbumin, minimum of two replicates) [nM]","EC50 ([3]; BHK cells expressing human GLP-1R and CRE-luciferase, 12-point curve, 3 h, 37 °C, assay buffer with 1% ovalbumin, minimum of two replicates) [nM]"
CCCCCCCCCCCCCCCC(=O)NCCCC[C@H](NC(=O)[C@H](CO)NC(=O)[C@@H]1CCCN1C(=O)[C@@H]1CCCN1C(=O)[C@@H]1CCCN1C(=O)[C@H](C)NC(=O)CNC(=O)[C@H](CO)NC(=O)[C@H](CO)NC(=O)[C@@H]1CCCN1C(=O)CNC(=O)CNC(=O)[C@H](C)NC(=O)[C@H](CC(C)C)NC(=O)[C@H](CC(C)C)NC(=O)[C@H](Cc1c[nH]c2ccccc12)NC(=O)[C@H](CC(N)=O)NC(=O)[C@@H](NC(=O)[C@H](Cc1ccccc1)NC(=O)[C@H](CCC(=O)O)NC(=O)C(C)(C)NC(=O)[C@H](C)NC(=O)[C@H](C)NC(=O)[C@H](CCC(N)=O)NC(=O)[C@H](CCCCN)NC(=O)[C@H](CC(=O)O)NC(=O)[C@H](CC(C)C)NC(=O)[C@H](Cc1ccc(O)cc1)NC(=O)[C@@H](NC(=O)[C@H](CO)NC(=O)[C@H](Cc1ccc(O)cc1)NC(=O)[C@H](CC(=O)O)NC(=O)[C@H](CO)NC(=O)[C@@H](NC(=O)[C@H](Cc1ccccc1)NC(=O)[C@@H](NC(=O)CNC(=O)[C@H](CCC(N)=O)NC(=O)C(C)(C)NC(=O)[C@@H](N)Cc1ccc(O)cc1)[C@@H](C)O)[C@@H](C)O)[C@@H](C)CC)C(C)C)C(N)=O [Compound 5],33,173,199,,,
CC[C@H](C)[C@H](NC(=O)[C@H](CO)NC(=O)[C@H](Cc1ccc(O)cc1)NC(=O)[C@H](CC(=O)O)NC(=O)[C@H](CO)NC(=O)[C@@H](NC(=O)[C@H](Cc1ccccc1)NC(=O)[C@@H](NC(=O)CNC(=O)[C@H](CCC(N)=O)NC(=O)C(C)(C)NC(=O)[C@@H](N)Cc1ccc(O)cc1)[C@@H](C)O)[C@@H](C)O)C(=O)N[C@@H](Cc1ccc(O)cc1)C(=O)N[C@@H](CC(C)C)C(=O)N[C@@H](CC(=O)O)C(=O)N[C@@H](CCCCN)C(=O)N[C@@H](CCC(N)=O)C(=O)N[C@@H](C)C(=O)N[C@@H](C)C(=O)NC(C)(C)C(=O)N[C@@H](CCC(=O)O)C(=O)N[C@@H](Cc1ccccc1)C(=O)N[C@H](C(=O)N[C@@H](CC(N)=O)C(=O)N[C@@H](Cc1c[nH]c2ccccc12)C(=O)N[C@@H](CC(C)C)C(=O)N[C@@H](CC(C)C)C(=O)N[C@@H](C)C(=O)NCC(=O)NCC(=O)N1CCC[C@H]1C(=O)N[C@@H](CO)C(=O)N[C@@H](CO)C(=O)NCC(=O)N[C@@H](C)C(=O)N1CCC[C@H]1C(=O)N1CCC[C@H]1C(=O)N1CCC[C@H]1C(=O)N[C@@H](CO)C(=O)N[C@@H](CCCCNC(=O)COCCOCCNC(=O)COCCOCCNC(=O)CC[C@H](NC(=O)CCCCCCCCCCCCCCCCC(=O)O)C(=O)O)C(N)=O)C(C)C [Compound 6],1,23,59,,,
CC[C@H](C)[C@H](NC(=O)[C@H](CO)NC(=O)[C@H](Cc1ccc(O)cc1)NC(=O)[C@H](CC(=O)O)NC(=O)[C@H](CO)NC(=O)[C@@H](NC(=O)[C@H](Cc1ccccc1)NC(=O)[C@@H](NC(=O)CNC(=O)[C@H](CCC(N)=O)NC(=O)C(C)(C)NC(=O)[C@@H](N)Cc1ccc(O)cc1)[C@@H](C)O)[C@@H](C)O)C(=O)N[C@@H](Cc1ccc(O)cc1)C(=O)N[C@@H](CC(C)C)C(=O)N[C@@H](CCC(=O)O)C(=O)N[C@@H](CCCCNC(=O)COCCOCCNC(=O)COCCOCCNC(=O)CC[C@H](NC(=O)CCCCCCCCCCCCCCCCCCC(=O)O)C(=O)O)C(=O)N[C@@H](CCC(N)=O)C(=O)N[C@@H](C)C(=O)N[C@@H](C)C(=O)NC(C)(C)C(=O)N[C@@H](CCC(=O)O)C(=O)N[C@@H](Cc1ccccc1)C(=O)N[C@H](C(=O)N[C@@H](CCC(N)=O)C(=O)N[C@@H](Cc1c[nH]c2ccccc12)C(=O)N[C@@H](CC(C)C)C(=O)N[C@@H](CC(C)C)C(=O)N[C@@H](CCC(=O)O)C(=O)NCC(=O)NCC(=O)N1CCC[C@H]1C(=O)N[C@@H](CO)C(=O)N[C@@H](CO)C(=O)NCC(=O)N[C@@H](C)C(=O)N1CCC[C@H]1C(=O)N1CCC[C@H]1C(=O)N1CCC[C@H]1C(=O)N[C@@H](CO)C(N)=O)C(C)C [Compound 9] (H-Y[Aib]QGTFTSDYSIYLEK([AEEA-AEEA-γGlu-C20 diacid])QAA[Aib]EFVQWLLEGGPSSGAPPPS-NH2),5,92,220,0.185,0.0114,0.0031
CC[C@H](C)[C@H](NC(=O)[C@H](CO)NC(=O)[C@H](Cc1ccc(O)cc1)NC(=O)[C@H](CC(=O)O)NC(=O)[C@H](CO)NC(=O)[C@@H](NC(=O)[C@H](Cc1ccccc1)NC(=O)[C@@H](NC(=O)CNC(=O)[C@H](CCC(N)=O)NC(=O)C(C)(C)NC(=O)[C@@H](N)Cc1ccc(O)cc1)[C@@H](C)O)[C@@H](C)O)C(=O)N[C@@H](Cc1ccc(O)cc1)C(=O)N[C@@H](CC(C)C)C(=O)N[C@@H](CCC(=O)O)C(=O)N[C@@H](CCCCNC(=O)[C@@H](N)CCCCNC(=O)[C@@H](N)CCCCNC(=O)CC[C@H](NC(=O)CCCCCCCCCCCCCCCCCCC(=O)O)C(=O)O)C(=O)N[C@@H](CCC(N)=O)C(=O)N[C@@H](C)C(=O)N[C@@H](C)C(=O)NC(C)(C)C(=O)N[C@@H](CCC(=O)O)C(=O)N[C@@H](Cc1ccccc1)C(=O)N[C@H](C(=O)N[C@@H](CCC(N)=O)C(=O)N[C@@H](Cc1c[nH]c2ccccc12)C(=O)N[C@@H](CC(C)C)C(=O)N[C@@H](CC(C)C)C(=O)N[C@@H](CCC(=O)O)C(=O)NCC(=O)NCC(=O)N1CCC[C@H]1C(=O)N[C@@H](CO)C(=O)N[C@@H](CO)C(=O)NCC(=O)N[C@@H](C)C(=O)N1CCC[C@H]1C(=O)N1CCC[C@H]1C(=O)N1CCC[C@H]1C(=O)N[C@@H](CO)C(N)=O)C(C)C [Compound 10] (H-Y[Aib]QGTFTSDYSIYLEK([εLys-εLys-γGlu-C20 diacid])QAA[Aib]EFVQWLLEGGPSSGAPPPS-NH2),11,150,244,,,
CC[C@H](C)[C@H](NC(=O)[C@H](CO)NC(=O)[C@H](Cc1ccc(O)cc1)NC(=O)[C@H](CC(=O)O)NC(=O)[C@H](CO)NC(=O)[C@@H](NC(=O)[C@H](Cc1ccccc1)NC(=O)[C@@H](NC(=O)CNC(=O)[C@H](Cc1c[nH]cn1)NC(=O)C(C)(C)NC(=O)[C@@H](N)Cc1ccc(O)cc1)[C@@H](C)O)[C@@H](C)O)C(=O)N[C@@H](Cc1ccc(O)cc1)C(=O)N[C@@H](CC(C)C)C(=O)N[C@@H](CCC(=O)O)C(=O)N[C@@H](CCCCNC(=O)[C@@H](N)CCCCNC(=O)[C@@H](N)CCCCNC(=O)CC[C@H](NC(=O)CCCCCCCCCCCCCCCCCCC(=O)O)C(=O)O)C(=O)N[C@@H](CCC(N)=O)C(=O)N[C@@H](C)C(=O)N[C@@H](C)C(=O)NC(C)(C)C(=O)N[C@@H](CCC(=O)O)C(=O)N[C@@H](Cc1ccccc1)C(=O)N[C@H](C(=O)N[C@@H](CCC(N)=O)C(=O)N[C@@H](Cc1c[nH]c2ccccc12)C(=O)N[C@@H](CC(C)C)C(=O)N[C@@H](CC(C)C)C(=O)N[C@@H](CCC(=O)O)C(=O)NCC(=O)NCC(=O)N1CCC[C@H]1C(=O)N[C@@H](CO)C(=O)N[C@@H](CO)C(=O)NCC(=O)N[C@@H](C)C(=O)N1CCC[C@H]1C(=O)N1CCC[C@H]1C(=O)N1CCC[C@H]1C(=O)N[C@@H](CO)C(N)=O)C(C)C [Compound 11] (H-Y[Aib]HGTFTSDYSIYLEK([εLys-εLys-γGlu-C20 diacid])QAA[Aib]EFVQWLLEGGPSSGAPPPS-NH2),13,147,7,,,
